Measured values published in patent US20260144805A1, “CANNABIDIOL COMPOSITIONS FOR USE IN THE TREATMENT OF NEURODEGENERATIVE AND NEUROLOGICAL DISORDERS” (JAZZ PHARMACEUTICALS RESEARCH UK LIMITED, priority 2022, published 2026).

Key:
[1] = tested on: harmaline model of Essential Tremor; experiment: Harmaline model of Essential Tremor, subjective tremor score 0-4 (Example 3; DS = DS-D); type: in vivo, rat; conditions: Propranolol 40 mg/kg i.p.
Description: All experiments were carried out in male Sprague Dawley rats (˜250 g). Naïve rats were acclimatised to the procedure room in their home cages up to 7 days following arrival at the test facility, with food and water available ad libitum. All animals were weighed at the beginning of the study and assigned to treatment groups (Vehicle n=6, treatment groups n=12/group).
Animals were dosed and tested as per Table G below, across 3 test days. Treatment groups were equally allocated across the 3 days of testing. The animals received either vehicle, DS at 30, 100 or 150 mg/kg (1 mL/kg, i.p.) or propranolol at 40 mg/kg (5 mL/kg, i.p.) (Compound 1), the animals were then dosed with vehicle or Harmaline at 10 mg/kg (5 mL/kg, i.p.) (Compound 2). The animals received DS at 30, 100 or 150 mg/kg (1 mL/kg, i.p.) 40 or 100 min before harmaline, with the first test point 20 mins later to give a pre-treatment time at first test point of 60 and 120 mins. Propanolol was dosed 30 min before harmaline and tested 20, 40 and 60 mins post-harmaline. At all test points post-harmaline, the animals were observed and given a tremor score of 0-4 (as per Table H).
Drug substance (i.e., DS-D, as described in Example 1) was formulated in 1:12:87 Ethanol, Kolliphor HS & Saline.
Propranolol (40 mg/kg i.p.) served as a disease-relevant comparator.
30 mg/kg drug substance required 1 hr pre-treatment whilst 100 and 150 mg/kg drug substance required 2 hr pre-treatment.
Behavioural observation data was analysed using a repeated measures two-way ANOVA followed by Dunnett's multiple comparison analysis (GraphPad, Prism v9.0.0) (p<0.05 considered significant).

[2] = tested on: valproic acid-induced autism spectrum disorder (ASD) mouse model; experiment: Valproic acid-induced ASD model, social behavior (Example 6, Table P); type: in vivo; parameters: key: +: improvement; Ø: no change; −: not tested
From the text: (§1) The main objective of the following study was to assess the effect of the drug substance (DS) of Example 1 in ameliorating autism-like behavior in valproic acid-induced autism spectrum disorder (ASD) mouse model (FIGS. 19A-B).

[3] = tested on: rat model of essential tremor; experiment: Harmaline rat model of essential tremor, tremor plate: motion power percentage, tremor index, number of tremors, time in tremor, tremor length (Example 4); type: in vivo; parameters: key to Motion Power Percentage, significance vs harmaline + vehicle / Number of tremors, significance vs harmaline + vehicle / Total time in tremor, significance vs harmaline + vehicle / Average tremor length, significance vs harmaline + vehicle: ns = not significant; *, **, ***, **** = statistical significance at p < 0.05, 0.01, 0.001, 0.0001 respectively; *, **, ***, **** = statistical significance at p < 0.05, 0.01, 0.001, 0.0001 respectively; *, **, ***, **** = statistical significance at p < 0.05, 0.01, 0.001, 0.0001 respectively; *, **, ***, **** = statistical significance at p < 0.05, 0.01, 0.001, 0.0001 respectively; conditions: for Average tremor length, significance vs harmaline + vehicle / Number of tremors, significance vs harmaline + vehicle / Total time in tremor, significance vs harmaline + vehicle / Motion Power Percentage, significance vs harmaline + vehicle: I.P.
From the text: (§2) The following study was designed to assess the drug substance (DS) efficacy in the rat model of essential tremor. Synthetic CBD (sCBD I.P.) and DS I.P. and DS. P.O and compared observing tremor score, motion power percentage (MPP), tremor index (TI), number of tremors, total time spent in tremor, and average tremor length.
(§3) The results are summarized in Tables J-M. All comparisons were made to the harmaline+vehicle group within each study.

[4] = tested on: valproic acid-induced autism spectrum disorder (ASD) mouse model; experiment: Valproic acid-induced ASD model, autism-like behaviors, DS vs sCBD and risperidone (Example 6, Table P); type: in vivo; parameters: key to Adult open field hyperactivity (spontaneous LMA on day 1) / Adult open field hyperactivity (LMA on day 2) / Adult marble burying / Adult grooming / Juvenile vocalisation: +: improvement; Ø: no change; −: not tested
From the text: as §1

[5] = tested on: rat model of essential tremor; experiment: Harmaline rat model of essential tremor, observed tremor score (Example 4); type: in vivo; parameters: key to Observed tremor score, significance vs harmaline + vehicle: ns = not significant; *, **, ***, **** = statistical significance at p < 0.05, 0.01, 0.001, 0.0001 respectively; *, **, ***, **** = statistical significance at p < 0.05, 0.01, 0.001, 0.0001 respectively; *, **, ***, **** = statistical significance at p < 0.05, 0.01, 0.001, 0.0001 respectively; *, **, ***, **** = statistical significance at p < 0.05, 0.01, 0.001, 0.0001 respectively; conditions: for Observed tremor score, significance vs harmaline + vehicle: I.P.
From the text: as §2, §3

[6] = tested on: valproic acid-induced autism spectrum disorder (ASD) mouse model; experiment: Valproic acid-induced ASD model, bottle-brush test (irritability) (Example 6, Table P); type: in vivo; parameters: key: +: improvement; Ø: no change; −: not tested
From the text: as §1

Structure (SMILES): CC(C)NCC(O)COc1cccc2ccccc12 (centres unmarked) [Propranolol]
- deficits induced by harmaline vs vehicle/harmaline group ([1]; 20, 40 and 60 min post-harmaline): significantly attenuated
- Tremor Score (median ± IQR) ([1]; 20 mins post-harmaline): 0.0 ± 0.0
- Tremor Score (median ± IQR) ([1]; 40 mins post-harmaline): 0.0 ± 0.0
- Tremor Score (median ± IQR) ([1]; 60 mins post-harmaline): 0.0 ± 0.75

Structure (SMILES): C=C(C)[C@@H]1CCC(C)=C[C@H]1c1c(O)cc(CCCCC)cc1O [sCBD, 2-[(1R,6R)-3-Methyl-6-(1-methylethenyl)-2-cyclohexen-1-yl]-5-pentyl-1,3-benzenediol]
- Adult active social behavior ([2]; 9.21 mg/kg I.P.): Ø
- Juvenile play behavior ([2]; 9.21 mg/kg I.P.): Ø
- Adult active social behavior ([2]; 27.63 mg/kg I.P.): Ø
- Juvenile play behavior ([2]; 27.63 mg/kg I.P.): Ø
- Adult active social behavior ([2]; 92.11 mg/kg I.P.): +
- Juvenile play behavior ([2]; 92.11 mg/kg I.P.): +
- Average tremor length, significance vs harmaline + vehicle ([3]; dose 9.1 mg/kg): ns
- Number of tremors, significance vs harmaline + vehicle ([3]; dose 9.1 mg/kg): ns
- Total time in tremor, significance vs harmaline + vehicle ([3]; dose 9.1 mg/kg): ns
- Motion Power Percentage, significance vs harmaline + vehicle ([3]; dose 9.1 mg/kg, 20 min): ns
- Motion Power Percentage, significance vs harmaline + vehicle ([3]; dose 9.1 mg/kg, 40 min): ns
- Motion Power Percentage, significance vs harmaline + vehicle ([3]; dose 9.1 mg/kg, 60 min): ns
- Average tremor length, significance vs harmaline + vehicle ([3]; dose 27.3 mg/kg): ns
- Number of tremors, significance vs harmaline + vehicle ([3]; dose 27.3 mg/kg): ns
- Total time in tremor, significance vs harmaline + vehicle ([3]; dose 27.3 mg/kg): ns
- Motion Power Percentage, significance vs harmaline + vehicle ([3]; dose 27.3 mg/kg, 20 min): ns
- Motion Power Percentage, significance vs harmaline + vehicle ([3]; dose 27.3 mg/kg, 40 min): ns
- Motion Power Percentage, significance vs harmaline + vehicle ([3]; dose 27.3 mg/kg, 60 min): ns
- Average tremor length, significance vs harmaline + vehicle ([3]; dose 54.7 mg/kg): ns
- Number of tremors, significance vs harmaline + vehicle ([3]; dose 54.7 mg/kg): ns
- Total time in tremor, significance vs harmaline + vehicle ([3]; dose 54.7 mg/kg): ns
- Motion Power Percentage, significance vs harmaline + vehicle ([3]; dose 54.7 mg/kg, 20 min): ns
- Motion Power Percentage, significance vs harmaline + vehicle ([3]; dose 54.7 mg/kg, 40 min): ns
- Motion Power Percentage, significance vs harmaline + vehicle ([3]; dose 54.7 mg/kg, 60 min): ns
- Average tremor length, significance vs harmaline + vehicle ([3]; dose 91.1 mg/kg): ns
- Number of tremors, significance vs harmaline + vehicle ([3]; dose 91.1 mg/kg): ns
- Total time in tremor, significance vs harmaline + vehicle ([3]; dose 91.1 mg/kg): ns
- Motion Power Percentage, significance vs harmaline + vehicle ([3]; dose 91.1 mg/kg, 20 min): ns
- Motion Power Percentage, significance vs harmaline + vehicle ([3]; dose 91.1 mg/kg, 40 min): ns
- Motion Power Percentage, significance vs harmaline + vehicle ([3]; dose 91.1 mg/kg, 60 min): * (*, **, ***, **** = statistical significance at p < 0.05, 0.01, 0.001, 0.0001 respectively)
- Dose (as CBD) from which MPP and TI were significantly reduced ([3]; intraperitoneal, sCBD only at one time point (60 min)): 91 mg/kg
- Adult grooming ([4]; 9.21 mg/kg I.P.): +
- Adult marble burying ([4]; 9.21 mg/kg I.P.): Ø
- Adult open field hyperactivity (LMA on day 2) ([4]; 9.21 mg/kg I.P.): Ø
- Adult open field hyperactivity (spontaneous LMA on day 1) ([4]; 9.21 mg/kg I.P.): +
- Adult grooming ([4]; 27.63 mg/kg I.P.): +
- Adult marble burying ([4]; 27.63 mg/kg I.P.): +
- Adult open field hyperactivity (LMA on day 2) ([4]; 27.63 mg/kg I.P.): +
- Adult open field hyperactivity (spontaneous LMA on day 1) ([4]; 27.63 mg/kg I.P.): +
- Adult grooming ([4]; 92.11 mg/kg I.P.): +
- Adult marble burying ([4]; 92.11 mg/kg I.P.): +
- Adult open field hyperactivity (LMA on day 2) ([4]; 92.11 mg/kg I.P.): +
- Adult open field hyperactivity (spontaneous LMA on day 1) ([4]; 92.11 mg/kg I.P.): +
- Juvenile vocalisation ([4]; 92.11 mg/kg I.P.): +
- minimum effective dose in social behavior and after the bottle-brush test (irritability) ([4]; i.p.): 92.11 mg/kg
- Minimum dose (as CBD) decreasing the observed tremor score ([5]; DS oral and intraperitoneal, sCBD i.p.): 27 mg/kg
- Observed tremor score, significance vs harmaline + vehicle ([5]; dose 9.1 mg/kg, 20 min): ns
- Observed tremor score, significance vs harmaline + vehicle ([5]; dose 9.1 mg/kg, 40 min): ns
- Observed tremor score, significance vs harmaline + vehicle ([5]; dose 9.1 mg/kg, 60 min): ns
- Observed tremor score, significance vs harmaline + vehicle ([5]; dose 27.3 mg/kg, 20 min): ns
- Observed tremor score, significance vs harmaline + vehicle ([5]; dose 27.3 mg/kg, 40 min): * (*, **, ***, **** = statistical significance at p < 0.05, 0.01, 0.001, 0.0001 respectively)
- Observed tremor score, significance vs harmaline + vehicle ([5]; dose 27.3 mg/kg, 60 min): * (*, **, ***, **** = statistical significance at p < 0.05, 0.01, 0.001, 0.0001 respectively)
- Observed tremor score, significance vs harmaline + vehicle ([5]; dose 54.7 mg/kg, 20 min): ** (*, **, ***, **** = statistical significance at p < 0.05, 0.01, 0.001, 0.0001 respectively)
- Observed tremor score, significance vs harmaline + vehicle ([5]; dose 54.7 mg/kg, 40 min): * (*, **, ***, **** = statistical significance at p < 0.05, 0.01, 0.001, 0.0001 respectively)
- Observed tremor score, significance vs harmaline + vehicle ([5]; dose 54.7 mg/kg, 60 min): * (*, **, ***, **** = statistical significance at p < 0.05, 0.01, 0.001, 0.0001 respectively)
- Observed tremor score, significance vs harmaline + vehicle ([5]; dose 91.1 mg/kg, 20 min): * (*, **, ***, **** = statistical significance at p < 0.05, 0.01, 0.001, 0.0001 respectively)
- Observed tremor score, significance vs harmaline + vehicle ([5]; dose 91.1 mg/kg, 40 min): ns
- Observed tremor score, significance vs harmaline + vehicle ([5]; dose 91.1 mg/kg, 60 min): ns
- Adult bottle brush irritability test ([6]; 9.21 mg/kg I.P.): Ø
- Juvenile bottle brush irritability test ([6]; 9.21 mg/kg I.P.): Ø
- Adult bottle brush irritability test ([6]; 27.63 mg/kg I.P.): Ø
- Juvenile bottle brush irritability test ([6]; 27.63 mg/kg I.P.): +
- Adult bottle brush irritability test ([6]; 92.11 mg/kg I.P.): +
- Juvenile bottle brush irritability test ([6]; 92.11 mg/kg I.P.): +
